According to patent publication EP0592600B1, “PROTEINS S POLYPEPTIDES AND USES THEREOF” (THE SCRIPPS RESEARCH INSTITUTE, priority 1991, dated 1993):
Bridge positions count the residues as written; N and C are the ends. Ends that are not written are not given here. Peptide text beside a SMILES is read from it.

Assays:
PS:C4BP complex [1] = target: T1, PS:C4BP complex (Homo sapiens, UniProt P04003+P20851); assay: Fluid-phase peptide inhibition of PS binding to b-C4BP, detected on MAb S-7-coated plates
T1 construct: Purified human C4BP was obtained from 5 liters (1) of human citrated plasma; from tissue; host or cells: human citrated plasma (C4BP); protein S per Schwarz et al
T1 sequence (P04003 49-597): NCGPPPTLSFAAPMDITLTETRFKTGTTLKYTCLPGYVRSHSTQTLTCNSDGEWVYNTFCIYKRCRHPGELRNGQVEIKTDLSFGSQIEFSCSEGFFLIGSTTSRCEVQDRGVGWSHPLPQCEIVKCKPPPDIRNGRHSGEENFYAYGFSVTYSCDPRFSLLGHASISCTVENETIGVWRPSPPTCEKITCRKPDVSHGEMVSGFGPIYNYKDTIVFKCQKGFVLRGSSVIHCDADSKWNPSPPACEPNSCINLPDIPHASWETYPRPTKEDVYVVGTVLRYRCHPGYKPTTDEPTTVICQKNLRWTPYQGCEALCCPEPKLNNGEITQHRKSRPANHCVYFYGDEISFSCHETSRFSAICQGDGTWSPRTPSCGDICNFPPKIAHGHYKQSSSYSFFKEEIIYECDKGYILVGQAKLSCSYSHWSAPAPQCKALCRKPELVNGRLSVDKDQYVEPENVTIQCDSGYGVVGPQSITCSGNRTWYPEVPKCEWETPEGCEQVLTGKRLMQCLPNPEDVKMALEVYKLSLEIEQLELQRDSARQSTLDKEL
T1 sequence (P20851 18-252): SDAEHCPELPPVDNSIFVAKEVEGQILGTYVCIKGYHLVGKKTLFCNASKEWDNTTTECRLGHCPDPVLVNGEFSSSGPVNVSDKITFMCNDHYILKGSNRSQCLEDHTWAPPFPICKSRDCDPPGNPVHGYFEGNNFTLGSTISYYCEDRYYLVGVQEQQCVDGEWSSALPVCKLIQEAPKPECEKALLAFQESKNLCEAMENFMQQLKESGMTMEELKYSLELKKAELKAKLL
Procedure: (§1) An alternative approach was used to test the ability of the peptides, PSP-loop, PSP-424K and PSP-428K, in comparison with that seen with the PSP-12 peptide, in inhibiting the binding of PS to C4BP, the result of which was detected on monoclonal antibody-coated plates. For this assay, biotinylated-C4BP (b-C4BP), PS and PSP peptides were admixed together at the respective concentrations of 0.5 µg/ml, 1.0 µg/ml and at a range of 0 - 500 µM (V:V:V). The admixtures were maintained for 2 hours at room temperature on a fluid phase plate to allow the binding and/or inhibition thereof of PS to C4BP by the PS-derived peptides. After the maintenance period, 50 µl of the admixture were separately admixed to wells previously coated with 10 µg/ml of MAb S-7 (ATCC No. HB 80819). The admixtures were maintained for 1 hour at room temperature to allow for the binding of C4BP to MAb S-7-antibody-coated plates. The binding of biotinylated complexes to the antibody-coated plates was detected as described in Example 5Aii.

PS:C4BP complex [2] = target: T1, PS:C4BP complex; assay: Peptide inhibition of binding of b-C4BP to PS-coated wells
Procedure: An alternative approach was used to test the ability of the peptides, PSP-loop and PSP-428K, in comparison with that seen with the PSP-12 peptide, in inhibiting the binding of C4BP to PS. For this assay, the microtiter wells were coated with purified PS diluted to a concentration of 10 µg/ml in carbonate-coating buffer as described above. The wells were maintained to allow the PS to bind to the well walls. After the maintenance period, the wells were blocked also as described above. The selected PSP peptides were separately admixed at various concentrations ranging from 0 - 500 µM with biotinylated-C4BP (b-C4BP) at a concentration of 1 µg/ml. The admixtures were maintained on a fluid phase plate for 2 hours at room temperature to form peptide-C4BP complexes.
Fifty µl of the complexed admixtures were separately admixed to the prepared C4BP-coated wells and maintained for 1 hour at room temperature. Thereafter, the plate was washed and processed for developing as described above.

PS:C4BP complex [3] = target: T1, PS:C4BP complex; assay: Fluid-phase peptide inhibition of b-PS binding to C4BP, detected on anti-C4BP polyclonal antibody-coated plates
Procedure: as §1, with “polyclonal” for “monoclonal”, “C4BP, biotinylated-PS (b-PS)” for “biotinylated-C4BP (b-C4BP), PS”, “3” for “0.5”, “0.6” for “1.0”, “anti-C4BP IgG polyclonal antibody.” for “MAb S-7 (ATCC No. HB 80819).”, “C4BP-antibody-coated” for “MAb S-7-antibody-coated”

C4BP = target: T2, C4BP (Homo sapiens, UniProt P04003+P20851); settings: in vitro; cited from earlier work
T2 sequence (P04003 49-597): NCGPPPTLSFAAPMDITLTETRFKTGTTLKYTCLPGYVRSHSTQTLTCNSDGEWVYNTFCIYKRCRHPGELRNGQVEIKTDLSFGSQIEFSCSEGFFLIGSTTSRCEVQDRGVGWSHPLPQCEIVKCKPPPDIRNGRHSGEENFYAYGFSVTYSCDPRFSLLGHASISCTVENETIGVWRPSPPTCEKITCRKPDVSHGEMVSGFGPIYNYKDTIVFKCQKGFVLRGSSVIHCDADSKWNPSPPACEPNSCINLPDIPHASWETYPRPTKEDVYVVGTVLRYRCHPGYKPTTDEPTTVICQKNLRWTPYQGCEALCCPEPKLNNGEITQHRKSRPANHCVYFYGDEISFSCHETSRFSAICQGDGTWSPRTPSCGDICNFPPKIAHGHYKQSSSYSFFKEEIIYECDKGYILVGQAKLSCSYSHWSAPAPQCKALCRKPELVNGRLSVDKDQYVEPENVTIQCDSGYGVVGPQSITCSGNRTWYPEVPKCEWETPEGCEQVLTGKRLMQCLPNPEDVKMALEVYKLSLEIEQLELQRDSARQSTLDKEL
T2 sequence (P20851 18-252): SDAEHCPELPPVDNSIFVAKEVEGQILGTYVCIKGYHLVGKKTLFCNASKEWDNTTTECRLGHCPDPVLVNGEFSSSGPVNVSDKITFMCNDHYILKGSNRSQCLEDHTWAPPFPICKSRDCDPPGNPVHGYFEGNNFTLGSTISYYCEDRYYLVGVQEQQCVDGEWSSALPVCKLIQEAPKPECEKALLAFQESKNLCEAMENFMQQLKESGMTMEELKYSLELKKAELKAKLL

PS:C4BP complex [4] = target: T1, PS:C4BP complex; assay: Peptide Inhibition Assay: binding of b-PS to C4BP in solid phase; settings: subsequent experiments
Procedure: Each of the peptides produced as described in Example 1 and listed in Table 1 was analyzed for its ability to inhibit the binding of native protein S in liquid-phase to C4BP in solid-phase.
Microtiter wells of a 96 well plate were coated with 50 µl of 10 µg/ml purified C4BP in carbonate buffer (0.02 M Na2CO3, pH 9.0, 0.02% Na-Azide). After blocking with 10% BSA in TBS, 50 µl of different concentrations of peptides diluted in washing buffer (TBS, 0.2% BSA, 5mM CaCl, 0.02% Tween 20) were separately admixed to C4BP-coated wells. After 2 hours at room temperature, 50 µl of a solution of biotinylated protein S, were admixed to each well to form a second binding admixture having a final concentration of 2 µg/ml. The plate was agitated and the samples were incubated 1 hour at room temperature. The samples were discarded and the wells were washed 3 times with washing buffer. To each well, 50 µl of strepavidin-alkaline-phosphatase (1 µg/ml washing buffer) were admixed and allowed to incubate for 30 minutes at room temperature. The strepavidin-alkaline-phosphatase was then discarded and the wells were washed 6 times with washing buffer. The resulting optical densities of the reaction solutions were read as described before in Example 2C.
Results of the assay are reported as percent inhibition of C4BP binding. Percent of inhibition of C4BP binding is defined as: I = 100% - 100 x (deltaT /deltaC ) [formula] • where I is expressed as a percent; and • where 100% = delta/min of the amount of b-PS which specifically bound to C4BP-coated wells in the absence of any competing PS-peptide; and • where deltaT = the change in absorbance (405 nm) in the presence of competing PS-peptide; and • where deltaC = the change in absorbance (405 nm) in the absence of competing PS-peptide.

C4b binding protein [5] = target: T3, C4b binding protein (human, UniProt P04003 49-597; P20851 18-252); assay: Fluid-phase competition of b-C4BP, PS and peptide; capture on MAb S-7
T3 construct: mature; The beta chain is added from general knowledge; Biotinylated (b-C4BP) in some assays; also called C4BP; purified human C4BP
T3 sequence (looked up) 1: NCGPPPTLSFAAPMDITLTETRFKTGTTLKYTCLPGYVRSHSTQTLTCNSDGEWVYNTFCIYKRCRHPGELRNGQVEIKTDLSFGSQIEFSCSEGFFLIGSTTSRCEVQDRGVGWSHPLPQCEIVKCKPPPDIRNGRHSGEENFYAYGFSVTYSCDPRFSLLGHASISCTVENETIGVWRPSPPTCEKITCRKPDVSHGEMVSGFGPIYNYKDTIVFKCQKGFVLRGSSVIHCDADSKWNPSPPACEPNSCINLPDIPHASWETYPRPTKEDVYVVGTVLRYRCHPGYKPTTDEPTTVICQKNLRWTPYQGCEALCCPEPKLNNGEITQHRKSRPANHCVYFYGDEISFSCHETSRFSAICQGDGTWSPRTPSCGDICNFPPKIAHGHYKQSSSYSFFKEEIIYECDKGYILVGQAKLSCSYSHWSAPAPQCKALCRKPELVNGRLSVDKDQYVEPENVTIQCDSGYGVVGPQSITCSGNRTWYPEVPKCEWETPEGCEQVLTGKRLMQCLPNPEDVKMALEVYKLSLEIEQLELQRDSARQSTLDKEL
T3 sequence (looked up) 2: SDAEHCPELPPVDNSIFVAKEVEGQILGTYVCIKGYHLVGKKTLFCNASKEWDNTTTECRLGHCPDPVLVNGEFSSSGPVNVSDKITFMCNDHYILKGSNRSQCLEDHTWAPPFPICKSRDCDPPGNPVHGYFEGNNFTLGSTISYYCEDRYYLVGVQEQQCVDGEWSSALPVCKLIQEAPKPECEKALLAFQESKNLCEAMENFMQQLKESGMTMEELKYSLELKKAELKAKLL

C4b binding protein [6] = target: T3, C4b binding protein; assay: Fluid-phase competition of C4BP, b-PS and peptide; capture on anti-C4BP polyclonal IgG
C4b binding protein [7] = target: T3, C4b binding protein; assay: Competition ELISA, peptide preincubated with b-C4BP, PS-coated wells

For `CC[C@H](C)[C@H](NC(=O)CNC(=O)[C@@H](N)CO)C(=O)N[C@@H](CCCCN)C(=O)N[C@@H](CCCCN)C(=O)N[C@H](C(=O)N[C@H](C(=O)N[C@@H](CCC(N)=O)C(=O)N[C@@H](CCC(=O)O)C(=O)N[C@@H](CCCCN)C(=O)N[C@@H](CCC(N)=O)C(=O)N[C@@H](CC(N)=O)C(=O)N[C@@H](CCCCN)C(=O)N[C@@H](CS)C(N)=O)[C@@H](C)CC)[C@@H](C)CC` [PSP-424K] (H-SGIKKIIQEKQNKC-NH2), the IC50 (PS:C4BP complex [1]; b-C4BP 0.5 µg/ml, PS 1.0 µg/ml, peptide 0 - 500 µM) was about 50 µM, the IC90 (PS:C4BP complex [1]; b-C4BP 0.5 µg/ml, PS 1.0 µg/ml, peptide 0 - 500 µM, read-out: IC90) was about 250 µM and the IC90 (PS:C4BP complex [2]; b-C4BP 1 µg/ml, PS-coated wells, peptide 0 - 500 µM, read-out: IC90) was about 250 µM. For the same molecule, the IC50 (PS:C4BP complex [2]; b-C4BP 1 µg/ml, PS-coated wells, peptide 0 - 500 µM, read-out: half-maximal inhibitory concentration (IC50)) was about 50 µM and the “inhibition of the binding of b-PS to C4BP” value (PS:C4BP complex [3]; compared with PSP-loop) was “also inhibitory but with lower effectiveness”.

For “GVQLDLDEAI [synthetic peptide derived from the carboxy terminal region of protein S (residues 605 to 614 of mature PS)]”, the “effect on the interaction of protein S with C4BP” value (C4BP) is given as “inhibits the interaction of protein S with C4BP in vitro”.

In the case of `CC[C@H](C)[C@@H]1NC(=O)[C@H](CO)NC(=O)[C@H](C)NC(=O)CNC(=O)[C@H](CCC(N)=O)NC(=O)[C@H](CCCCN)NC(=O)[C@H](CCSC)NC(=O)[C@H](CC(C)C)NC(=O)[C@H](CC(N)=O)NC(=O)[C@H](Cc2c[nH]c3ccccc23)NC(=O)[C@H](CO)NC(=O)[C@H](CCCNC(=N)N)NC(=O)[C@H]([C@@H](C)CC)NC(=O)[C@@H](N)CSSC[C@@H](C(N)=O)NC(=O)[C@H](Cc2c[nH]cn2)NC(=O)[C@H](CCCCN)NC(=O)[C@H](CC(N)=O)NC(=O)[C@H](CCC(N)=O)NC(=O)[C@H](CCCCN)NC(=O)[C@H](CCC(=O)O)NC(=O)[C@H](CCC(N)=O)NC(=O)[C@H]([C@@H](C)CC)NC(=O)[C@H]([C@@H](C)CC)NC(=O)[C@H](CCC(=O)O)NC(=O)[C@H](CCCCN)NC1=O` [PSP-loop] (H-CIRSWNLMKQGASIKEIIQEKQNKHC-NH2; disulfide 1-26; N-terminus assumed), the IC90 (PS:C4BP complex [1]) is reported as about 100 µM, the “peptide concentration that completely inhibits the binding of PS to C4BP” value (PS:C4BP complex [4]) is reported as “approximately 250 µM” and the IC90 (PS:C4BP complex [2]) is reported as 50 µM. For the same molecule, the IC90 (PS:C4BP complex [3]) was about 400 µM.

Molecule CIRSWNLMKQGASIKEIIQEKQNKHC-NH2 (cysteine pairing not given here, also called loop peptide) [PSP-loop] has an IC50 (C4b binding protein [5]) of about 35 µM, an IC50 (C4b binding protein [6]) of about 40 µM and an IC50 (C4b binding protein [7]) of about 15 µM. The IC90 (C4b binding protein [7]) was 50 µM.
